These results are taken from PMC4349623 (BMC Biochemistry, 2015).

The subject of one series is Ca^2+-ATPase. The conditions noted are these: ref [13]; cited from earlier work. An excerpt:
(§1) Given the structural similarities and functional differences of CaM an ...

For series [1] the following is noted: no reference given; cited from earlier work.
Source text: as §1

A further series has as its system nNOS. The conditions noted are these: ref [12]; cited from earlier work.
Source text: as §1

For series [2] the following is noted: ref [13]; cited from earlier work. The text has this:
(§2) It is well known that the exposure of the hydrophobic patches of CaM is essential for target protein recognition. Such hydrophobic exposure can be photometrically monitored by its interaction with extrinsic 1-anilinonaphthalene 8-sulfonate (ANS) and 2-p-toluidinyl-naphthalene-6-sulfonate (TNS) molecules. These two fluorophores have been widely used as a probe for measuring hydrophobicity. ANS is a fluorescent dye which emits very weak fluorescence in water due to its excited charge transfer (CT) state that is quenched easily by water molecules.

The subject of a further series is CaM. The series can be described thus: Stern-Volmer quenching of CaM-bound ANS by acrylamide. The text has this:
Given that steady state fluorescence cannot differentiate the intensity contribution from individual ANS molecules, we utilized time-correlated single-photon counting (TCSPC) spectrometry to measure the ANS fluorescence decay. […] The data was best fit with a three-exponential-decay function. The shortest lifetime (τ3 = ~0.3 ns) was assigned to that of free ANS molecules, which was confirmed by using an ANS solution alone. Note that this lifetime reaches the detection limitation of our instrument and therefore, it cannot be determined precisely. […] The fitting also provided the fractional (or relative amplitude), fs, which weights the “amount” of the emitting species, and the normalized pre-exponential value, Bs, which provides the relative concentration of each species. […] In other words, the long lifetime component of ANS is one order less quenched by acrylamide.
For a quenching that is purely by collision, the steady-state and lifetime Stern-Volmer quenching equation can be expressed as4 <τo>/<τ>=1+KsvQandKsv=kqxτ0 where τ and τo are the lifetime in the presence and absence of the quencher, and kq is the quenching rate constant.

In series [3] the target is CaM(1TnC): domain 1 of TnC and domains 2, 3 and 4 of CaM. The series can be described thus: ITC; 1 mM Orai-CMBD titrated into 30 uM CaM or chimera; 10 mM Tris, pH 7.5, 0.1 M NaCl, 2 mM Ca2+, 25°C; 'one set of sites' or two sequential binding sites model. (In general: Isothermal titration calorimetry measures the heat released or taken up as one component is titrated into another.)

The target in the next series is dansyl-labeled CaM(1TnC). The series can be described thus: stopped-flow fluorescence (dissociation chase); 5 uM dansyl-labeled CaM or chimera with 15 uM Orai-CMBD, 2 mM Ca2+, mixed with 75 uM unlabeled CaM, 2 mM Ca2+; dansyl fluorescence decay (excitation 370 nm), single exponential fit.
Series [4] is described as follows: Far-UV circular dichroism. The following applies: Ca^2+-bound, 0.1 mg/ml protein, 10 mM Tris, pH 7.5. On the technique in general: Circular dichroism is widely used to follow secondary structure.
Experimental: The CD spectra were recorded in a JASCO J-715 instrument (JASCO Corporation, Japan) equipped with a temperature control unit. CD spectra were recorded using a cylindrical 0.1 cm path length quartz curvet and were shown as the average of 3–6 scans using a spectra bandwidth of 1.0 nm. In all measurements, 0.1 mg/ml proteins in 10 mM Tris, pH 7.5 with 1–2 mM Ca^2+ or 0.5 mM EDTA were scanned from 190 nm to 260 nm.
A short description of series [5]: ANS binding by isothermal titration calorimetry. The following applies: 30 mM Hepes, 25°C. An excerpt:
The heat evolved is proportional to the amount of the ANS/Ca^2+-CaM complex formation. […] We fit the data with “one set of sites” to obtain the apparent association binding constant (Kapp) of 2.10 ± 0.11 × 10^3 M^−1 for Ca^2+-CaM (Table 1), consistent with a previous report. […] Based on our studies, the middle point from the ITC thermogram (and the inflection point in the corresponding derived binding isotherm) indicates approximately 4–6 bound-ANS molecules in Ca^2+-CaM. Therefore, Kapp is proportional to the actual number of protein-bound ANS molecules in the experimental condition. In the text below, we will discuss Kapp as the ANS binding affinity for simplicity.
The ITC data were fit with a “one set of sites” model as described in the Experimental section.
The ITC experiments were carried out on a VP-ITC (GE, Pittsburgh, PA). Protein samples were buffer-exchanged to the desired buffer. Peptide concentration was prepared by adding buffer to the peptide powder as measured by weight. All samples were degassed 15–30 min before loading. To avoid buffer mismatch, the syringe and sample cells were rinsed with the desired buffer prior to sample loading. A typical titration was performed by sequential injections every 120–180 sec of 5–10 μL solution at 25°C. The ITC raw data was corrected for the heat of titrant dilution determined by an experiment conducted in identical conditions except that no protein was contained in the sample cell. The corrected data, after integration of heat evolved, was fitted with Origin software provided by the manufacturer to determine Ka and the observed or apparent ΔH (ΔHapp).

Series [6] is described as follows: ANS steady-state fluorescence (hydrophobicity probe). The series is classed as biochemical. The following applies: for ANS fold enhancement: pH 7.5, 0.1 M NaCl, 2 mM Ca^2+.
Source text: as §2, with “water molecules. […] ANS fluorescence increases dramatically in a hydrophobic environment or when the rotational motion of its phenylamino group is restricted. […] The fluorescence increased when Ca^2+ was included in the mixture.” for “water molecules.”
ANS fluorescence was excited at 350 nm.
Absorption measurements were carried out using a UV-1800 double-beam spectrometer (Shimadzu, Kyoto, Japan). The fluorescence spectra were recorded on a FluoroMax-3P (Horiba Scientific) equipped with a temperature control unit. For intrinsic Trp fluorescence, the excitation wavelength of 295 nm was chosen. […] The samples containing ANS or dansyl-labeled proteins were excited at 350 and 370 nm, respectively. The slit widths of 2 and 5 nm were typically chosen for excitation and emission, respectively, to eliminate photobleaching.

For Troponin C [TnC], the “affinity for Ca^2+-ATPase” value with Ca^2+-ATPase is recorded as “very low affinity”. In addition, the “Ca^2+ affinity of EF4 relative to that of CaM” value in series [1] is recorded as “one order higher”. Moreover, the “binding to / activation of nNOS” value in the series on nNOS is “can neither bind to nor activate nNOS”. The “interaction with ANS” value in series [2] was “no interaction between TnC and ANS”.

`O=S(=O)(O)c1cccc2cccc(Nc3ccccc3)c12` [ANS, 1-anilinonaphthalene 8-sulfonate]: the “kq (quenching rate constant), short lifetime” value in the series on CaM (τ1 ANS) was 2.2e+08 M⁻¹ s⁻¹. The “kq (quenching rate constant), τ2” value with CaM (τ2 ANS) turned out to be 1.9e+07 M⁻¹ s⁻¹.

“Orai-CMBD, 24-residue peptide corresponding to the CaM-binding domain of Orai1 (residues 68-91)”: in series [3], the Ka1 (first of two sequential sites) stood at 757000 M⁻¹, the Ka2 (second of two sequential sites) came to 17000 M⁻¹, the dH1 (first of two sequential sites) was -4.99 kcal/mol and the dH2 (second of two sequential sites) was -3.33 kcal/mol. In addition, in series [3], the stoichiometry N (as a rule, a count of units in the complex or per binding partner) stood at 2. In the series with dansyl-labeled CaM(1TnC), the koff – broadly, the rate constant with which the complex falls apart – amounted to 2.44 s⁻¹.

With Calmodulin [CaM], the “ellipticity ratio θ220/θ209” value in series [4] is listed as ~ 1. Also, the K app in [5] (in the absence of salt, pH 7.5, 2 mM Ca^2+, apparent association constant, one set of sites) is 2.10 ± 0.11 × 10^3 M^−1; in series [5] (in the presence of salt and Orai-CMBD, pH 7.5, 0.1 M NaCl, 2 mM Ca^2+), 3.43 ± 0.65 × 10^3 M^−1; in [5] (in the presence of salt, pH 7.5, 0.1 M NaCl, 2 mM Ca^2+, apparent association constant), 3.69 ± 0.08 × 10^3 M^−1. Besides, the “increase of ANS fluorescence intensity on Orai-CMBD binding” value in series [6] (Ca^2+-bound protein) was ~ 10%. For the same molecule, the ANS fluorescence change entry in series [6] (absence of Ca^2+) is given as “exhibited no change”. Also, in series [6] (in the absence of salt, 30 mM Hepes, pH 7.5, 2 mM Ca^2+, spectra integration vs apo protein, at least three repeats, three protein batches), the ANS enhancement is recorded as 3.01 ± 0.12 fold. Also, the ANS fold enhancement is 3.87 ± 0.10 fold in series [6] (in the presence of salt and Orai-CMBD, 30 mM Hepes, vs apo protein); 3.49 ± 0.07 fold in series [6] (in the presence of salt, 30 mM Hepes, spectra integration vs apo protein).
